Laboratory results reported in patent publication US12171224B2, “Choline salt and ammonium-free adjuvants for water conditioning and agricultural formulations” (SPECIALTY OPERATIONS FRANCE, priority 2015, dated 2024).

How the values were obtained:
Details in all cases: 1000 ppm water, after 21 days
[1] = system: Weeds; test: Greenhouse weed control study, average over the four weeds
Method: (§1) A greenhouse study was conducted to evaluate efficacy benefits of several candidates.
(§2) Procedure: Product application was made using a DeVries spray booth calibrated to 10 gpa, 40 psi with flat-fan AIXR11002 nozzle. Test plants were placed in a certain zone (Zone 3) of research greenhouse on a wire-mesh raised bench and arranged in a randomized complete block design. […] Environmental conditions averaged high temperature 87° F. to low temperature of 75° F. during trial dates. Average humidity levels ranged from 40% to 90%. Test plants received natural lighting for duration of trial. Test plants were soil watered every twenty-four (24) hours as needed.
(§3) Weeds were evaluated for percent control at 3, 7, 14, and 21-days following application.
(§4) Rating scale used; 0 indicating no control/injury up to 100 indicating complete control of weed species as compared to the untreated check.

[2] = system: Velvet leaf; test: Greenhouse weed control study, velvetleaf
Method: as §1, §2, §3, §4

[3] = system: Yellow foxtail; test: Greenhouse weed control study, yellow foxtail
Method: as §1, §2, §3, §4

[4] = system: Ivyleaf morning glory; test: Greenhouse weed control study, ivyleaf morning glory
Method: as §1, §2, §3, §4

[5] = system: Common barnyardgrass; test: Greenhouse weed control study, common barnyardgrass
Method: as §1, §2, §3, §4

[6] = (55% soln) 0.18%, use rate 0.18 % w/w
[7] = (55% soln) 0.45%, use rate 0.45 % w/w
[8] = (80% liquid) 1%, use rate 1 % w/w

N.N.O=S(=O)(O)O [Ammonium Sulfate]
Average percent control ([1]; 1%, use rate 2.5 % w/w): 39.575% | Average percent control ([1]; 2%, use rate 5 % w/w): 41.65% | Velvet leaf percent control ([2]; 1%, use rate 2.5 % w/w): 18.3% | Velvet leaf percent control ([2]; 2%, use rate 5 % w/w): 18.3% | Yellow foxtail percent control ([3]; 1%, use rate 2.5 % w/w): 40% | Yellow foxtail percent control ([3]; 2%, use rate 5 % w/w): 40% | Ivyleaf morning glory percent control ([4]; 1%, use rate 2.5 % w/w): 20% | Ivyleaf morning glory percent control ([4]; 2%, use rate 5 % w/w): 18.3% | Common barnyardgrass percent control ([5]; 1%, use rate 2.5 % w/w): 80% | Common barnyardgrass percent control ([5]; 2%, use rate 5 % w/w): 90%

C[N+](C)(C)CCO.O=C([O-])CC(O)(CC(=O)O)C(=O)O [Choline Dihydrogen Citrate]
Average percent control ([1]; 0.4%, use rate 0.4 % w/w): 42.5% | Velvet leaf percent control ([2]; 0.4%, use rate 0.4 % w/w): 20% | Yellow foxtail percent control ([3]; 0.4%, use rate 0.4 % w/w): 40% | Ivyleaf morning glory percent control ([4]; 0.4%, use rate 0.4 % w/w): 26.7% | Common barnyardgrass percent control ([5]; 0.4%, use rate 0.4 % w/w): 83.3%

O=C(O)CC(O)(CC(=O)O)C(=O)O [Citric acid]
Average percent control [1, 6]: 37.925% | Average percent control [1, 7]: 36.25% | Velvet leaf percent control [2, 6]: 15% | Velvet leaf percent control [2, 7]: 15% | Yellow foxtail percent control [3, 6]: 36.7% | Yellow foxtail percent control [3, 7]: 50% | Ivyleaf morning glory percent control [4, 6]: 16.7% | Ivyleaf morning glory percent control [4, 7]: 20% | Common barnyardgrass percent control [5, 6]: 83.3% | Common barnyardgrass percent control [5, 7]: 60%

Choline bicarbonate
Average percent control [1, 8]: 34.575% | Velvet leaf percent control [2, 8]: 15% | Yellow foxtail percent control [3, 8]: 83.3% | Ivyleaf morning glory percent control [4, 8]: 10% | Common barnyardgrass percent control [5, 8]: 30%
